The source of these data is ChEMBL document CHEMBL5247605, “Discovery of potent indazole-based human glutaminyl cyclase (QC) inhibitors as Anti-Alzheimer's disease agents” (Eur J Med Chem, 2022).

One data set has as its target hERG (KCNH2) (Homo sapiens, UniProt Q12809). The data set can be described thus: Inhibition of hERG at 10 uM by fluorescence polarization assay relative to control. Type of data set: toxicity. Background: Block of hERG is tested as a sign of cardiac risk.
The nature of data set [1]: Cytotoxicity against mouse HT-22 cells assessed as cell viability at 10 uM incubated for 18 hrs by MTT assay relative to control. Type of data set: toxicity, cell-based. The note with it: read-out: Activity. A general note: Tetrazolium dyes change colour on reduction, which living cells bring about.
For data set [2], the system named is Mus musculus. The experiment in a line: Antialzheimer activity in human amyloid beta (3 to 40 residues) induced ICR mouse model assessed as inhibition of pyroglutamate form of amyloid-beta formation in brain at 10 mM, icv by sandwich ELISA relative to control. In kind it is functional. In general terms: An ELISA detects its analyte on a solid surface through an enzyme-linked reagent.

Data set [3] in a line: Metabolic stability in mouse liver microsomes assessed as compound remaining after 30 mins. Type of data set: ADME, Microsome. The note with it: read-out: Stability.
Data set [4] concerns the target Glutaminyl-peptide cyclotransferase (Mus musculus, UniProt Q9CYK2). The experiment in a line: Inhibition of mouse glutaminyl cyclase.
Data set [5] in a line: Metabolic stability in human liver microsomes assessed as compound remaining after 30 mins. In kind it is ADME, Microsome. The note with it: read-out: Stability.
Data set [6] addresses Voltage-gated inwardly rectifying potassium channel KCNH2 (Homo sapiens, UniProt Q12809). The data set can be described thus: Inhibition of hERG by fluorescence polarization assay. Type of data set: toxicity.
Data set [7] is filed under the species Mus musculus. The following applies: ICR, dose 10.0 mM, route icv.

Active and inactive are the calls of the source. No cut-off for these calls is given here. Some results are limits rather than exact numbers.

Chain of Voltage-gated inwardly rectifying potassium channel KCNH2 (Q12809 whole entry): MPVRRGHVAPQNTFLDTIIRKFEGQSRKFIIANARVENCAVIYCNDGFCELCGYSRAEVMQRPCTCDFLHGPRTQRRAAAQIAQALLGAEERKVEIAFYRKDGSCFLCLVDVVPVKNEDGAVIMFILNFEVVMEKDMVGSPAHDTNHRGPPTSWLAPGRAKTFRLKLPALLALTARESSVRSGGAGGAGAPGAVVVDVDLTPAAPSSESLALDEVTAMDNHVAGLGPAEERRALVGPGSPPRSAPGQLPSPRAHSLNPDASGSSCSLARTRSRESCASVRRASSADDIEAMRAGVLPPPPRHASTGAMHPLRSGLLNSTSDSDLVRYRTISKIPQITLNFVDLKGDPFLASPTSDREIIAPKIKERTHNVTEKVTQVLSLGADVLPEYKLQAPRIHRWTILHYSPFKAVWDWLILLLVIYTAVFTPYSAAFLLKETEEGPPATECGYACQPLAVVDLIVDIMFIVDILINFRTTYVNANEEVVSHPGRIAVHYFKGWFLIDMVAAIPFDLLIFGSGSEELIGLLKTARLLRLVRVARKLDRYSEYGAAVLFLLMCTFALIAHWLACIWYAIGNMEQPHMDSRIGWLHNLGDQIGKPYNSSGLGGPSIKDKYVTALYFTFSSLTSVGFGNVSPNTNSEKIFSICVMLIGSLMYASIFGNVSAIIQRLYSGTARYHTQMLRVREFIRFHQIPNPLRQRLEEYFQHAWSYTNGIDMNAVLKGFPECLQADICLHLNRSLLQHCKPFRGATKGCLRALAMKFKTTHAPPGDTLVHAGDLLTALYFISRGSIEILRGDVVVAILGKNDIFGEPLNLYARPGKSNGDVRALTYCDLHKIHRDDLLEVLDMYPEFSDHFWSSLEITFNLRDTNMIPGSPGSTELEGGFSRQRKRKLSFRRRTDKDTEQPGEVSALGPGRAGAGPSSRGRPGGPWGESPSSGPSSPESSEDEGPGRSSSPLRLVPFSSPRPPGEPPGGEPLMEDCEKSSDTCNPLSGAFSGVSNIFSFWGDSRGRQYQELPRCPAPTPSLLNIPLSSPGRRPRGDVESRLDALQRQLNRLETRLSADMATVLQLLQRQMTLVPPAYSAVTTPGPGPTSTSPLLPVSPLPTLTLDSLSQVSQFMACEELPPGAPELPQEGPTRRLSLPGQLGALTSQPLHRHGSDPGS
Chain of hERG (KCNH2) (Q12809 whole entry): as above
Chain of Glutaminyl-peptide cyclotransferase (Q9CYK2 whole entry): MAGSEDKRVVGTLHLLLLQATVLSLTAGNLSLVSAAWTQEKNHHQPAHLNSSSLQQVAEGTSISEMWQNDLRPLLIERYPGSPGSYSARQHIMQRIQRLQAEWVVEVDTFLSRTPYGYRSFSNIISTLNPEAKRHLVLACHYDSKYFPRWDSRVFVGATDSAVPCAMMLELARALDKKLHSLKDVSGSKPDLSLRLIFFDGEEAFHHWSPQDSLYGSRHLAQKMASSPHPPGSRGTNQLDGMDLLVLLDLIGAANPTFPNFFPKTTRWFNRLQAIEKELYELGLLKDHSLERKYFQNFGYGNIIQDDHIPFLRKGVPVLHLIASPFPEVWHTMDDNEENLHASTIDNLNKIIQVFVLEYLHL

In the case of `Cc1nn(CCCCc2ccnc(N)c2)c2ccc(NC(=O)NCCCn3cncc3C)cc12`, 10 µM produced 50.3% inhibition against hERG (KCNH2). Further, the viability at 18 h, 10 µM in data set [1] was 98.7%. Besides, the “inhibition (INH)” value in the data set on Mus musculus [2] is recorded as 7.7%.

`Cc1n[nH]c2cc(N(CC3CCCC3)C(=O)NCCCn3cncc3C)ccc12`: 10 µM produced 80.8% inhibition against hERG (KCNH2). Moreover, in data set [1], the viability at 18 h, 10 µM came out at 96.9%. The remaining at 0.5 h in data set [3] is 11.8%; in data set [5], 37%. In addition, the IC50 (as a rule, the concentration at which inhibition is half-maximal) in data set [4] was 0.0182 µM; in data set [6], greater than 10 µM. Besides, in the data set with Mus musculus [2], the “inhibition (INH)” value is 25.5%.

On to `Cc1n[nH]c2ccc(N(C(=O)NCCCn3cncc3C)C3CCCCC3)cc12`, for which, on hERG (KCNH2), testing at 10 µM gave an inhibition of 74.4%. For the same compound, the viability at 18 h, 10 µM in data set [1] was 100%. In addition, the IC50 in data set [6] was greater than 10 µM. Also, the “inhibition (INH)” value with Mus musculus [2] stood at 8%.

Consider `Cc1n[nH]c2ccc(N(Cc3ccc(F)cc3)C(=O)NCCCn3cncc3C)cc12`, for which, on hERG (KCNH2), at 10 µM the inhibition was 80.6%. The viability at 18 h, 10 µM in data set [1] was 97.2%. This compound also came in with an IC50 in data set [6] greater than 10 µM. For the same compound, the inhibition (usually the share of the control response that was lost under treatment) in the data set filed under Mus musculus [7] was “inactive”.

At hERG (KCNH2), `Cc1nn(C)c2cc(N(C(=O)NCCCn3cncc3C)C3CCCCC3)ccc12` gave an inhibition at 10 µM of 52.2%. In data set [1], the viability at 18 h, 10 µM stood at 102%. Moreover, the inhibition entry in the data set listed under Mus musculus [7] is “inactive”.

The compound `Cc1nn(C)c2ccc(NC(=O)NCCCn3cncc3C)cc12` returned an inhibition at 10 µM against hERG (KCNH2) of 54.4%. The viability at 18 h, 10 µM in data set [1] was found to be 104%. Moreover, the inhibition entry in the data set listed under Mus musculus [7] was “inactive”.

On hERG (KCNH2), `Cc1nn(C)c2ccc(N(C(=O)NCCCn3cncc3C)C3CCCCC3)cc12` had an inhibition at 10 µM of 58.1%. The viability at 18 h, 10 µM in data set [1] was 99.1%. The same compound had an IC50 in data set [6] greater than 10 µM. Besides, the inhibition result in the data set listed under Mus musculus [7] is “inactive”.

On to `Cc1nn(C)c2ccc(N(Cc3cccnc3)C(=O)NCCCn3cncc3C)cc12`, for which the inhibition at 10 µM against hERG (KCNH2) is 44.1%. Further, in data set [1], the viability at 18 h, 10 µM came to 98.3%. The half-inhibitory concentration (IC50) in data set [6] was less than 10 µM. Further, in the data set listed under Mus musculus [7], the inhibition entry is “inactive”.

Compound `Cc1nn(C)c2ccc(N(CC3CCCC3)C(=O)NCCCn3cncc3C)cc12` returned an inhibition at 10 µM on hERG (KCNH2) of 81.5%. Besides, the viability at 18 h, 10 µM in data set [1] stood at 104%. This compound yielded a 50% inhibitory concentration (IC50) in data set [6] greater than 10 µM. The inhibition entry in the data set filed under Mus musculus [7] was “inactive”.

Consider `Cc1n[nH]c2cc(N(Cc3ccc(F)cc3)C(=O)NCCCn3cncc3C)ccc12`, for which at 10 µM the inhibition against hERG (KCNH2) was 61.9%. Also, in data set [1], the viability at 18 h, 10 µM was 92.1%. Moreover, the figures for the remaining at 0.5 h in data set [3] and in data set [5] were 7.2% and 40.1%, respectively. Further, the IC50 in data set [4] was 0.0299 µM; in data set [6], greater than 10 µM. In addition, the “inhibition (INH)” value with Mus musculus [2] amounted to 38.4%.

On to `Cc1nn(C)c2cc(N(Cc3ccc(F)cc3)C(=O)NCCCn3cncc3C)ccc12`, for which, at hERG (KCNH2), the inhibition at 10 µM is 56.5%. For the same compound, the viability at 18 h, 10 µM in data set [1] turned out to be 102%. Further, the inhibition result in the data set listed under Mus musculus [7] was “inactive”.

Consider `Cc1nn(C)c2cc(N(CC3CCCC3)C(=O)NCCCn3cncc3C)ccc12`, for which testing at 10 µM against hERG (KCNH2) gave an inhibition of 70.3%. The viability at 18 h, 10 µM in data set [1] is 107%. In data set [6], this compound came in with an IC50 greater than 10 µM. Further, in the data set filed under Mus musculus [7], the inhibition result is “inactive”.

For `Cc1cncn1CCCNC(=O)N(Cc1ccc(F)cc1)c1ccc2c(C)n(C)nc2c1`, the inhibition at 10 µM at hERG (KCNH2) came out at 52%. Further, in data set [1], the viability at 18 h, 10 µM was found to be 91.3%. For the same compound, the “inhibition (INH)” value in the data set on Mus musculus [2] stood at 15%.

Turning to `Cc1nn(C)c2ccc(N(Cc3ccc(F)cc3)C(=O)NCCCn3cncc3C)cc12`, the inhibition at 10 µM against hERG (KCNH2) was 63.6%. Also, in data set [1], the viability at 18 h, 10 µM turned out to be 108%. The compound also registered an IC50 in data set [6] greater than 10 µM. Also, the “inhibition (INH)” value with Mus musculus [2] is given as 7%.

As to `CCCOc1ccc([C@@H]2CNC(=O)N2c2ccc3nc[nH]c3c2)cc1`, the “inhibition (INH)” value in the data set on Mus musculus [2] was 17.1%.

On to `Cc1n[nH]c2cc(N(C(=O)NCCCn3cncc3C)C3CCCCC3)ccc12`, for which the inhibition at 10 µM at hERG (KCNH2) is 47.6%. Besides, the viability at 18 h, 10 µM in data set [1] is 100%. The values for the remaining at 0.5 h in data set [3] and in data set [5] were 18.4% and 50.4%, respectively. For the same compound, the half-inhibitory concentration (IC50) in data set [4] is 0.0342 µM; in data set [6], less than 10 µM. The “inhibition (INH)” value in the data set on Mus musculus [2] is listed as 25%.
